For experiment [1], the system named is Staphylococcus aureus. As to the kind of experiment: Antibacterial activity against methicillin-resistant Staphylococcus aureus ATCC 33591 assessed as growth inhibition after 16 to 20 hr by CLSI broth dilution method. Format: functional.
Experiment [2] has as its system Mycobacterium intracellulare. As to the kind of experiment: Antibacterial activity against Mycobacterium intracellulare ATCC 23068 assessed as growth inhibition after 70 to 74 hr by CLSI broth dilution method. Format: functional.
In experiment [3] the test system is Pseudomonas aeruginosa. As to the kind of experiment: Antibacterial activity against Pseudomonas aeruginosa ATCC 27853 assessed as growth inhibition after 16 to 20 hr by optical density measurement.
The test system of experiment [4] is Staphylococcus aureus. The experiment can be described thus: Antibacterial activity against Staphylococcus aureus ATCC 29213 assessed as growth inhibition after 16 to 20 hr by Alamar blue assay. Format: functional, organism-based.
In experiment [5] the test system is Cryptococcus neoformans. As to the kind of experiment: Antifungal activity against Cryptococcus neoformans ATCC 90113 assessed as growth inhibition after 70 to 74 hr by Alamar blue assay. Format: functional, organism-based.
In experiment [6] the test system is Nakaseomyces glabratus. The experiment can be described thus: Antifungal activity against Candida glabrata ATCC 90030 assessed as growth inhibition after 46 to 50 hr by CLSI broth dilution method. Format: functional.
The subject of experiment [7] is Aspergillus fumigatus. The experiment can be described thus: Antifungal activity against Aspergillus fumigatus ATCC 204305 assessed as growth inhibition after 46 to 50 hr by Alamar blue assay. Format: functional, organism-based.
Experiment [8] deals with Staphylococcus aureus. As to the kind of experiment: Antibacterial activity against methicillin-resistant Staphylococcus aureus ATCC 33591 assessed as growth inhibition after 16 to 20 hr by Alamar blue assay. Format: functional, organism-based.
The subject of experiment [9] is Nakaseomyces glabratus. As to the kind of experiment: Antifungal activity against Candida glabrata ATCC 90030 assessed as growth inhibition after 46 to 50 hr by optical density measurement.
Experiment [10] has as its system Pseudomonas aeruginosa. As to the kind of experiment: Antibacterial activity against Pseudomonas aeruginosa ATCC 27853 assessed as growth inhibition after 16 to 20 hr by CLSI broth dilution method. Format: functional.
The subject of experiment [11] is Candida albicans. As to the kind of experiment: Antifungal activity against Candida albicans ATCC 90028 assessed as growth inhibition after 46 to 50 hr by CLSI broth dilution method. Format: functional.
Experiment [12] deals with Cryptococcus neoformans. As to the kind of experiment: Antifungal activity against Cryptococcus neoformans ATCC 90113 assessed as growth inhibition after 70 to 74 hr by CLSI broth dilution method. Format: functional.
The subject of experiment [13] is Aspergillus fumigatus. As to the kind of experiment: Antifungal activity against Aspergillus fumigatus ATCC 204305 assessed as growth inhibition after 46 to 50 hr by CLSI broth dilution method. Format: functional.
Experiment [14] relates to Staphylococcus aureus. The experiment can be described thus: Antibacterial activity against Staphylococcus aureus ATCC 29213 assessed as growth inhibition after 16 to 20 hr by CLSI broth dilution method. Format: functional.
The test system of experiment [15] is Candida albicans. As to the kind of experiment: Antifungal activity against Candida albicans ATCC 90028 assessed as growth inhibition after 46 to 50 hr by Alamar blue assay. Format: functional, organism-based.
Experiment [16] relates to Pichia kudriavzevii. As to the kind of experiment: Antifungal activity against Pichia kudriavzevii ATCC 6258 assessed as growth inhibition after 46 to 50 hr by CLSI broth dilution method. Format: functional.
The test system of experiment [17] is Mycobacterium intracellulare. The experiment can be described thus: Antibacterial activity against Mycobacterium intracellulare ATCC 23068 assessed as growth inhibition after 70 to 74 hr by Alamar blue assay. Format: functional, organism-based.
In experiment [18] the test system is Escherichia coli. As to the kind of experiment: Antibacterial activity against Escherichia coli ATCC 35218 assessed as growth inhibition after 16 to 20 hr by optical density measurement.
For experiment [19], the system named is Escherichia coli. As to the kind of experiment: Antibacterial activity against Escherichia coli ATCC 35218 assessed as growth inhibition after 16 to 20 hr by CLSI broth dilution method. Format: functional.
Experiment [20] concerns Pichia kudriavzevii. As to the kind of experiment: Antifungal activity against Pichia kudriavzevii ATCC 6258 assessed as growth inhibition after 46 to 50 hr by optical density measurement.
For experiment [21], the system named is Escherichia coli. As to the kind of experiment: Antibacterial activity against Escherichia coli ATCC 35218 assessed as growth inhibition after 16 to 20 hr by optical density method.

The structures appear in SMILES notation. Values after ≈ are worked out from the molar mass of the structure shown.

In the case of `CC(C)c1ccc(C2(c3ccc(O)c(O)c3)OC(=O)c3ccccc32)cc1` (configuration not stated), the MIC is 12.5 µg/mL (≈ 34.7 µM) in [1]; over 200 µg/mL in experiment [2]; 200 µg/mL (≈ 555 µM) in experiment [6]; over 200 µg/mL in experiment [10]; over 200 µg/mL in experiment [11]; over 200 µg/mL in [12]. In addition, the minimal inhibitory concentration (MIC) in experiment [13] is over 200 µg/mL; in experiment [14], 18.8 µg/mL (≈ 52 µM); in experiment [16], over 200 µg/mL; in experiment [19], over 200 µg/mL. Moreover, the IC50 in experiment [3] was determined as 61 µg/mL (≈ 169 µM); in experiment [4], 4.96 µg/mL (≈ 13.8 µM); in experiment [5], 137 µg/mL (≈ 381 µM); in [7] it was 53.2 µg/mL (≈ 148 µM); in experiment [8], 6.81 µg/mL (≈ 18.9 µM); in experiment [9] it was 45.8 µg/mL (≈ 127 µM). Also, the IC50 in experiment [15] is 172 µg/mL (≈ 478 µM); in experiment [17] it was over 200 µg/mL; in experiment [18], over 200 µg/mL; in [20], 15.5 µg/mL (≈ 42.9 µM).

As to `CC(C)c1ccc(C2(c3ccc(O)c(O)c3)OC(=O)c3ccccc32)cc1[N+](=O)[O-]` (configuration not stated), the MIC in experiment [1] was 50 µg/mL (≈ 123 µM); in [2] it was over 200 µg/mL; in experiment [6], over 100 µg/mL; in experiment [10] it was over 200 µg/mL; in experiment [11] it was over 100 µg/mL; in experiment [12], over 100 µg/mL. The MIC is over 100 µg/mL in [13], 50 µg/mL (≈ 123 µM) in experiment [14], over 100 µg/mL in experiment [16] and over 200 µg/mL in [19]. The 50% inhibitory concentration (IC50) in [3] is over 200 µg/mL; in experiment [4], 26.4 µg/mL (≈ 65 µM); in experiment [5] it was over 200 µg/mL; in [7], over 200 µg/mL; in experiment [8] it was 27.8 µg/mL (≈ 68.5 µM); in experiment [9], 76.3 µg/mL (≈ 188 µM). The IC50 in experiment [15], in experiment [17], in experiment [18] and in experiment [20] was over 200 µg/mL each time.

For the compound `CC(C)c1ccc(C2(c3ccc(O)c(O)c3O)OC(=O)c3ccccc32)cc1` (configuration not stated), the minimum inhibitory concentration (MIC) in [1] is 25 µg/mL (≈ 66.4 µM); in experiment [2], over 200 µg/mL; in experiment [6], over 200 µg/mL; in experiment [10], over 200 µg/mL; in experiment [11] it was over 200 µg/mL; in experiment [12], over 200 µg/mL. In addition, the MIC in experiment [13] is over 200 µg/mL; in [14], 25 µg/mL (≈ 66.4 µM); in [16], over 200 µg/mL; in experiment [19], over 200 µg/mL. Also, the half-inhibitory concentration (IC50) in experiment [3] was 116 µg/mL (≈ 309 µM); in experiment [4], 18.4 µg/mL (≈ 49 µM); in experiment [5], over 200 µg/mL; in experiment [7], over 200 µg/mL; in experiment [8] it was 18.8 µg/mL (≈ 49.9 µM); in experiment [9], 17.5 µg/mL (≈ 46.5 µM). Besides, the IC50 in experiment [21] was 170 µg/mL (≈ 451 µM); in experiment [15], 65 µg/mL (≈ 173 µM); in [17], over 200 µg/mL; in experiment [20], 25.5 µg/mL (≈ 67.7 µM).

For `CC(C)c1ccc(C2(c3ccc(O)c(O)c3O)OC(=O)c3ccccc32)cc1[N+](=O)[O-]` (configuration not stated), the minimal inhibitory concentration (MIC) in [1] was 133 µg/mL (≈ 316 µM); in experiment [2], over 200 µg/mL; in experiment [6], 83.3 µg/mL (≈ 198 µM); in experiment [10], over 200 µg/mL; in [11], over 200 µg/mL; in experiment [12], over 200 µg/mL. In addition, the MIC is over 200 µg/mL in [13], 100 µg/mL (≈ 237 µM) in experiment [14], over 200 µg/mL in [16] and over 200 µg/mL in experiment [19]. The IC50 is 163 µg/mL (≈ 386 µM) in experiment [3]; 42.3 µg/mL (≈ 100 µM) in [4]; over 200 µg/mL in experiment [5]; over 200 µg/mL in [7]; 45.7 µg/mL (≈ 108 µM) in [8]; 21.3 µg/mL (≈ 50.6 µM) in experiment [9]. Also, the IC50 is 98.9 µg/mL (≈ 235 µM) in experiment [15], over 200 µg/mL in [17], over 200 µg/mL in experiment [18] and 88.7 µg/mL (≈ 210 µM) in experiment [20].

On to `C[C@@H]1[C@H](O)[C@@H](C)/C=C/C=C/C=C/C=C/C=C/C=C/C=C/[C@H](O[C@@H]2O[C@H](C)[C@@H](O)[C@H](N)[C@@H]2O)C[C@@H]2O[C@](O)(C[C@@H](O)C[C@@H](O)[C@H](O)CC[C@@H](O)C[C@@H](O)CC(=O)O[C@H]1C)C[C@H](O)[C@H]2C(=O)O` [AMPHOTERICIN B], for which the IC50 turned out to be 0.32 µg/mL (≈ 0.346 µM) in experiment [5]; 0.67 µg/mL (≈ 0.725 µM) in [7]; 0.28 µg/mL (≈ 0.303 µM) in experiment [9]; 0.2 µg/mL (≈ 0.216 µM) in experiment [15]; 0.56 µg/mL (≈ 0.606 µM) in experiment [20]. Further, the minimal inhibitory concentration (MIC) worked out at 0.63 µg/mL (≈ 0.682 µM) in experiment [6]; 0.52 µg/mL (≈ 0.563 µM) in [11]; 0.63 µg/mL (≈ 0.682 µM) in experiment [12]; 1.25 µg/mL (≈ 1.35 µM) in experiment [13]; 1.25 µg/mL (≈ 1.35 µM) in experiment [16].

For the compound `O=C(O)c1cn(C2CC2)c2cc(N3CCNCC3)c(F)cc2c1=O` [CIPROFLOXACIN], the figures for the half-maximal inhibitory concentration (IC50) in experiment [17] and in experiment [18] were 0.32 µg/mL (≈ 0.966 µM) and 0.005 µg/mL (≈ 0.0151 µM), respectively.

For the origin of these results see ChEMBL document CHEMBL3046465, “A facile synthesis of new 3,3-disubstituted phthalides of pharmacological interest” (Med Chem Res, 2013).
